Measurements as given in patent US5290347A, “Salt-forming type dye, and its concentrated solution composition and ink composition” (Orient Chemical Industries, Ltd., priority 1991, dated 1994).

Columns and labels:
[1] = Solubility of the salt-forming type dyes (Tables 1-3); type: physicochemical; settings: for Solubility, Ethanol: solvent: ethanol; for Solubility, Glycol ether: solvent: glycol ether
[2] = Solubility of the comparative dyes (Table 4), evaluation A-D; type: physicochemical; settings: for Solubility, Glycol ether: solvent: glycol ether; for Solubility, Lower alcohol: solvent: lower alcohol; for Solubility, Water: solvent: water

SMILES | Solubility, Water:Solvent = 2:8 [1] | Solubility, Ethanol [1] | Solubility, Glycol ether [1] | Solubility, Water:Solvent = 2:8 [2] | Solubility, Glycol ether [2] | Solubility, Lower alcohol [2] | Solubility, Water [2]
COc1cc(N=Nc2cccc(P(=O)(O)O)c2)c(C)cc1N=Nc1c(S(=O)(=O)O)cc2ccc(N)cc2c1O [Black No. 1] | 15 g/100 ml | 3 g/100 ml | 10 g/100 ml |  |  |  | 
COc1cc(N=Nc2cccc(P(=O)(O)O)c2)c(C)cc1N=Nc1c(S(=O)(=O)O)cc2ccc(N)cc2c1O [Black No. 2] | 10 g/100 ml | 5 g/100 ml | 15 g/100 ml |  |  |  | 
Nc1ccc2cc(S(=O)(=O)O)c(N=Nc3ccc(N=Nc4cccc(P(=O)(O)O)c4)c4ccc(S(=O)(=O)O)cc34)c(O)c2c1 [Black No. 3] | 20 g/100 ml | 5 g/100 ml | 30 g/100 ml |  |  |  | 
Nc1cc2c(O)c(N=Nc3ccc(N=Nc4cccc(P(=O)(O)O)c4)c4ccc(S(=O)(=O)O)cc34)c(S(=O)(=O)O)cc2cc1S(=O)(=O)O [Black No. 4] | 30 g/100 ml | 5 g/100 ml | 30 g/100 ml |  |  |  | 
Nc1cc2c(O)c(N=Nc3ccc(N=Nc4cccc(P(=O)(O)O)c4)c4ccc(S(=O)(=O)O)cc34)c(S(=O)(=O)O)cc2cc1S(=O)(=O)O [Black No. 5] | 10 g/100 ml | 10 g/100 ml | 30 g/100 ml |  |  |  | 
CC1(C)Nc2cccc3c(N=Nc4cc(S(=O)(=O)O)cc5cc(S(=O)(=O)O)c(N=Nc6cccc(P(=O)(O)O)c6)c(O)c45)ccc(c23)N1 [Black No. 6] | 10 g/100 ml | 10 g/100 ml | 15 g/100 ml |  |  |  | 
Nc1ccc2cc(S(=O)(=O)O)cc(O)c2c1N=Nc1cc(S(=O)(=O)O)cc2cc(S(=O)(=O)O)c(N=Nc3cccc(P(=O)(O)O)c3)c(O)c12 [Black No. 7] | 30 g/100 ml | 3 g/100 ml | 20 g/100 ml |  |  |  | 
Nc1ccc2cc(S(=O)(=O)O)c(N=Nc3ccc(N=Nc4cccc(P(=O)(O)O)c4)c4ccc(S(=O)(=O)O)cc34)c(O)c2c1 [Black No. 8] | 20 g/100 ml | 8 g/100 ml | 30 g/100 ml |  |  |  | 
Nc1c(N=Nc2cccc(P(=O)(O)O)c2)c(S(=O)(=O)O)cc2cc(S(=O)(=O)O)c(N=Nc3cccc(P(=O)(O)O)c3)c(O)c12 [Blue No. 1] | 30 g/100 ml | 3 g/100 ml | 25 g/100 ml |  |  |  | 
Nc1cc(S(=O)(=O)O)cc2cc(S(=O)(=O)O)c(N=Nc3ccc(N=Nc4cccc(P(=O)(O)O)c4)c4ccc(O)cc34)c(O)c12 [Blue No. 2] | 30 g/100 ml | 5 g/100 ml | 25 g/100 ml |  |  |  | 
COc1cc(N=Nc2cccc(P(=O)(O)O)c2)c(C)cc1N=Nc1c(S(=O)(=O)O)cc2cc(S(=O)(=O)O)cc(N)c2c1O [Blue No. 3] | 25 g/100 ml | 10 g/100 ml | 30 g/100 ml |  |  |  | 
O=P(O)(O)c1cccc(N=Nc2ccc(N=Nc3c(O)ccc4cc(S(=O)(=O)O)cc(S(=O)(=O)O)c34)cc2)c1 [Red No. 1] | 30 g/100 ml | 10 g/100 ml | 20 g/100 ml |  |  |  | 
CC(=O)Nc1cc(S(=O)(=O)O)cc2cc(S(=O)(=O)O)c(N=Nc3cccc(P(=O)(O)O)c3)c(O)c12 [Red No. 2] | 30 g/100 ml | 8 g/100 ml | 25 g/100 ml |  |  |  | 
O=P(O)(O)c1cccc(N=Nc2c(S(=O)(=O)O)cc3cc(Nc4ccc5c(O)c(N=Nc6cccc(P(=O)(O)O)c6)c(S(=O)(=O)O)cc5c4)ccc3c2O)c1 [Red No. 3] | 30 g/100 ml | 5 g/100 ml | 25 g/100 ml |  |  |  | 
Nc1cc(N=Nc2cccc(P(=O)(O)O)c2)c2c(O)cc(S(=O)(=O)O)cc2c1N=Nc1cccc(P(=O)(O)O)c1 [Red No. 4] | 30 g/100 ml | 3 g/100 ml | 30 g/100 ml |  |  |  | 
Cc1nn(-c2ccccc2)c(O)c1N=Nc1cccc(P(=O)(O)O)c1 [compound 1] |  |  |  | C (dissolved in an amount of 5% or less) | C (dissolved in an amount of 5% or less) | D (dissolved in an amount of 1% or less) | D (dissolved in an amount of 1% or less)
Cc1nn(-c2ccccc2)c(O)c1N=Nc1cccc(S(=O)(=O)O)c1 [compound 2] |  |  |  | C (dissolved in an amount of 5% or less) | B (dissolved in an amount of 5~10%) | C (dissolved in an amount of 5% or less) | D (dissolved in an amount of 1% or less)
Nc1cc(S(=O)(=O)O)cc2cc(S(=O)(=O)O)c(N=Nc3ccc(N=Nc4cccc(S(=O)(=O)O)c4)c4ccc(O)cc34)c(O)c12 [compound 3] |  |  |  | C (dissolved in an amount of 5% or less) | D (dissolved in an amount of 1% or less) | D (dissolved in an amount of 1% or less) | A (dissolved in an amount of 10% or more)
O=P(O)(O)c1cccc(N=Nc2ccc(N=Nc3c(O)ccc4cc(S(=O)(=O)O)cc(S(=O)(=O)O)c34)cc2)c1 [compound 4] |  |  |  | C (dissolved in an amount of 5% or less) | C (dissolved in an amount of 5% or less) | D (dissolved in an amount of 1% or less) | A (dissolved in an amount of 10% or more)
Nc1cc2c(O)c(N=Nc3ccc(N=Nc4cccc(P(=O)(O)O)c4)c4ccc(S(=O)(=O)O)cc34)c(S(=O)(=O)O)cc2cc1S(=O)(=O)O [compound 5] |  |  |  | D (dissolved in an amount of 1% or less) | C (dissolved in an amount of 5% or less) | D (dissolved in an amount of 1% or less) | A (dissolved in an amount of 10% or more)
Nc1cc2c(O)c(N=Nc3ccc(N=Nc4cccc(P(=O)(O)O)c4)c4ccc(S(=O)(=O)O)cc34)c(S(=O)(=O)O)cc2cc1S(=O)(=O)O [compound 6] |  |  |  | C (dissolved in an amount of 5% or less) | B (dissolved in an amount of 5~10%) | C (dissolved in an amount of 5% or less) | C (dissolved in an amount of 5% or less)
CC(=O)Nc1cc(S(=O)(=O)O)cc2cc(S(=O)(=O)O)c(N=Nc3cccc(P(=O)(O)O)c3)c(O)c12 [compound 7] |  |  |  | C (dissolved in an amount of 5% or less) | D (dissolved in an amount of 1% or less) | D (dissolved in an amount of 1% or less) | A (dissolved in an amount of 10% or more)
Nc1cc(S(=O)(=O)O)cc2cc(S(=O)(=O)O)c(N=Nc3ccc(N=Nc4cccc(S(=O)(=O)O)c4)c4ccccc34)c(O)c12 [compound 8] |  |  |  | D (dissolved in an amount of 1% or less) | B (dissolved in an amount of 5~10%) | C (dissolved in an amount of 5% or less) | D (dissolved in an amount of 1% or less)
